Assay results taken from patent US20050282865A1, “Neurotrophic factor production promoter” (FUJISAWA PHARMACEUTICAL CO., LTD., priority 2002, published 2005).

Tests used:
NGF [1] = assay: NGF expression in the cerebral cortex of mouse model of Parkinson's disease (EIA); type: in vivo; conditions: 6-OHDA mouse model
Protocol: (§1) The removed cerebral cortex and striatum were weighed, a homogenizing buffer (0.1M Tris-phosphate buffer (pH 7.4) containing 1M sodium hydrochloride, 2% BSA, 2 mM EDTA, 0.2% sodium azide) supplemented with aprotinin (80 TIU/L) was added in an amount of 19-fold volume of the weight, and the mixture was sonicated 30 times. After centrifugation (100,000 g×30 min) at 4° C., the supernatant was separated and the same amount of chloroform was added. The mixture was thoroughly stirred and centrifuged (20,000 g×10 min). The supernatant was separated and used as a sample for EIA (cryopreserved at −20° C. until use).
(§2) The concentration of neurotrophic factor in each sample was measured using EIA according to the method of Furukawa et al. (Journal of Neurochemistry), 40, 734-744 (1983)} in the case of NGF, and using EIA according to the method of Nitta et al. {pp. 463-467 of “Mapping the progress of Alzheimer's and Parkinson's Disease” (2002) edited by Mizuno et al.}, in the case of GDNF. The obtained values were multiplied by 20 to give a neurotrophic factor content of each brain region.
(§3) 5-week-old male ddy mice (Japan LLC, Inc.) were divided into the following four groups (9 mice per group) and subjected to a test. […]

GDNF [2] = assay: GDNF expression in the brain of normal mouse (EIA); type: in vivo; conditions: normal mice, 24 hr after final administration
Protocol: (§4) 5-week-old male ddy mice (Japan LLC, Inc.) were divided into the following three groups (9 mice per group) and subjected to a test. • Group 1 (Control) Phosphate buffered saline (PBS) was intraperitoneally administered to the mice once a day for 7 days. • Group 2 APA (0.75 mg/kg) dissolved in PBS was intraperitoneally administered to the mice once a day for 7 days. • Group 3 APA (7.5 mg/kg) dissolved in PBS was intraperitoneally administered to the mice once a day for 7 days.
(§5) In every group, the mice were decapitated at 24 hr after the final administration and the cerebral cortex and striatum thereof were removed.
(§6) The removed cerebral cortex and striatum were weighed, a homogenizing buffer (0.1M Tris-phosphate buffer (pH 7.4) containing 1M sodium hydrochloride, 2% BSA, 2 mM EDTA, 0.2% sodium azide) supplemented with aprotinin (80 TIU/L) was added in an amount of 19-fold volume of the weight, and the mixture was sonicated 30 times. […]
(§7) The concentration of neurotrophic factor in each sample was measured using EIA according to the method of Furukawa et al. (Journal of Neurochemistry), 40, 734-744 (1983)} in the case of NGF, and using EIA according to the method of Nitta et al. {pp. 463-467 of “Mapping the progress of Alzheimer's and Parkinson's Disease” (2002) edited by Mizuno et al.}, in the case of GDNF. […]

[3] = tested on: rats with injured spinal cord; assay: Walking ability of rats with spinal injury (BBB scale); type: in vivo, rat; conditions: spinal-injured Wistar rats, APA 0.75 mg/kg i.p. once a day
Protocol: 7-week-old male Wistar rats (Japan SMC, Inc.) were divided into the following three groups (12-17 rats per group) and subjected to a test. Pentobarbital sodium (DAINIPPON Pharmaceutical Co., Ltd., 35 mg/kg) was intraperitoneally injected to the rats, median incision was applied to the back, and paraspinal muscle was bluntly detached. After laminectomy of the 12th thoracic vertebra, the left spinal cord was cut at the same position with a sharp cutting tool. After 5 hr from the cutting, the rats confirmed to have anesthetic disorder in the left hind paw were subjected to the following test. • Group 1 PBS was intraperitoneally administered to rats with uninjured spinal cord (sutured without cutting the spinal cord after laminectomy of the 12th thoracic vertebra). • Group 2 PBS was intraperitoneally administered to rats with injured spinal cord. • Group 3 APA (0.75 mg/kg) dissolved in PBS was intraperitoneally administered to rats with injured spinal cord.
In every group, the administration was performed once a day for 20 days from the day of spinal injury. Evaluation method of walking ability of rats with injured spinal cord: The rats were placed in a box (length 1 m×width 1 m×height 30 cm) painted in gray, allowed to search freely, and evaluated in 21 levels according to 21-Point Basso-Besttie-Bresnahan Locomotor Rating Scale (BBB scale).

dopaminergic nerve = assay: Functional evaluation of dopaminergic nerve: methamphetamine-induced one side cycling movement in 6-OHDA mouse model of Parkinson's disease; type: in vivo; conditions: 6-OHDA striatum destruction, counted 10-20 min after methamphetamine 10 mg/kg, no-APA group 86.0±14.1
Protocol: 5-week-old male ddy mice (Japan LLC, Inc.) were divided into the following four groups (9 mice per group) and subjected to a test. Under pentobarbital anesthesia and without craniotomy, a needle of a microsyringe was punctured through the head skin into the striatum of the right brain, and 1 μL of 6-hydroxydopamine (6-OHDA, Sigma Co., 11.5 μg/μL) dissolved in physiological saline containing 0.05% ascorbic acid was injected. • Group 1 (Control) Physiological saline containing only ascorbic acid was injected, whereby the striatum was not damaged. […]
The mouse models of Parkinson's disease of each of the above-mentioned groups were allowed to search freely in a transparent cylindrical container (glass, diameter 9 cm-height 12 cm) for 10 min, methamphetamine (DAINIPPON Pharmaceutical Co., Ltd., 10 mg/kg) was intraperitoneally administered, and the number of cycling in 10-20 min after administration was counted. […]

NGF [4] = assay: NGF expression in the brain of normal mouse (EIA); type: in vivo; conditions: normal mice, 24 hr after final administration, vs control
Protocol: as §4, §5, §6, §7

[5] = Observation of normal mice after 7 consecutive days of intraperitoneal APA; type: in vivo, mouse; conditions: normal ddy mice, APA i.p. once a day for 7 days (0.75 or 7.5 mg/kg)
Protocol: as §4

GDNF [6] = assay: GDNF expression in the cerebral cortex of mouse model of Parkinson's disease (EIA); type: in vivo; conditions: 6-OHDA mouse model
Protocol: as §1, §2, §3

[7] = APA 0.75 mg/kg i.p. once a day for 7 days
[8] = APA 7.5 mg/kg i.p. once a day for 7 days

For `CC(=O)N1CCCC[C@H]1C(=O)O` [APA, N-acetyl-L-pipecolic acid], the “NGF expression amount in the cerebral cortex, increase” value (NGF [1]; [7]) was 11.2%, the “NGF expression amount in the cerebral cortex, increase” value (NGF [1]; [8]) was 30.7% and the “GDNF expression amount in the striatum, increase as compared to the control” value (GDNF [2]; [7]) was 66.0%. For the same molecule, the “GDNF expression amount in the cerebral cortex” value (GDNF [2]; APA 0.75 or 7.5 mg/kg i.p. once a day for 7 days, vs control) was “no remarkable difference”, the “level of walking ability (BBB scale)” value ([3]; at day 23, injury-only group plateaued at score 15) was “recovery to almost the same level as before injury” and the “effect of APA administration on walking ability (BBB scale)” value ([3]; first 2 days) was “not observed”. For the same molecule, the “level of walking ability (BBB scale)” value ([3]; from day 3) was “showed improvement from day 3”, the “one side cycling movement” value (dopaminergic nerve; APA 0.75 mg/kg i.p. for 7 days) was 40.9±17.3 times and the “one side cycling movement” value (dopaminergic nerve; APA 7.5 mg/kg i.p. for 7 days) was 47.1±13.1 times. The “NGF expression amount in the cerebral cortex” value (NGF [4]; APA 0.75 and 7.5 mg/kg i.p. once a day for 7 days) was “tended to increase in a dose-dependent manner”, the “NGF expression amount in the striatum” value (NGF [4]; APA 0.75 or 7.5 mg/kg i.p. once a day for 7 days) was “did not show remarkable difference from the control” and the “abnormal behavior, alopecia or decrease of body weight as compared to control mice” value [5] was “did not show abnormal behavior, alopecia or decrease of body weight”. For the same molecule, the “GDNF expression amount in the cerebral cortex, increase” value (GDNF [6]; [7]) was 74.9% and the “GDNF expression amount in the cerebral cortex, increase” value (GDNF [6]; [8]) was 232.4%.
